Each structure is given as a SMILES string. “And” between values parts separate entries of the source, which are not always exact repeats. Identical values can stand only once.

Broadly, the IC50 is the concentration needed to halve the response being measured. For orientation: pIC50 means the negative decadic logarithm of the IC50, by convention in mol/L. Read a low pIC50 as a high IC50.

The subject of this assay is Leishmania donovani. Description: Leishmania intramacrophage assay. The assay is classed as functional, organism-based. The settings on record: for IC50: Leishmania donovani.

The molecule `CCOc1cc(CNCCCn2ccnc2)cc(Cl)c1OC` showed an IC50 of 24.6 µM.

The molecule `Cc1cc(C(F)(F)F)nc(N2CCN(Cc3nccn3C)CC2)n1` gave an IC50 greater than 50.1 µM.

`c1ccc(C2CCN(c3cncc(-n4cccn4)n3)CC2)cc1` showed an IC50 greater than 50.1 µM.

In turn, `CCN1CCCC(O)(c2nc(C)c(CCOc3ccc(F)cc3)s2)CC1` (configuration not stated) gave an IC50 greater than 50.1 µM.

For the molecule `COCc1ccc(CNC(=O)C2=NN(c3ccccc3)C(=O)CN2)cc1`, the IC50 is greater than 50.1 µM.

`Cc1c(C(=O)O)sc2nc(Cc3ccccc3)nc(N)c12` showed an IC50 greater than 50.1 µM.

`COc1ccc(OCc2sc(C3(O)CCCNCC3)nc2C)cc1` (configuration not stated) gave an IC50 greater than 50.1 µM.

Molecule `c1cnc(-c2nc(CN3CCC(c4ccn[nH]4)CC3)cs2)nc1` had an IC50 greater than 50.1 µM.

Turning to `c1cnc(-c2nc(CN3CCCC(Cn4cncn4)C3)cs2)nc1` (configuration not stated), the IC50 was greater than 50.1 µM.

`O=C(NCC(F)(F)F)c1ccncc1` gave an IC50 greater than 50.1 µM.

As for `Cc1ccc(CN2Cc3c(cnn3C)C(COCC3CC3)C2)s1` (configuration not stated), the pIC50 is 5.151 and 4.71.

The molecule `Cn1nc(COc2cccnc2)c2c1CCN(CC1CC1)C2` showed an IC50 greater than 50.1 µM.

Molecule `Cc1cc(=O)n2nc(Oc3ccc(Cl)c(C)c3)sc2n1` had a pIC50 of 4.378 and an IC50 greater than 50.1 µM.

As for `CN(Cc1ccncc1)C1COC2(CCN(Cc3cccs3)CC2)C1` (configuration not stated), the concentration for half-maximal inhibition (IC50) is greater than 50.1 µM.

`Cc1cc(N(C)CC2COc3ccccc3O2)nc(C)n1` (configuration not stated) gave a half-inhibitory concentration (IC50) greater than 50.1 µM.

Turning to `CCNC(=O)c1ccc2ccc(N(CC)CC)n2c1`, the IC50 is greater than 50.1 µM.

In the case of `Cn1ccc(C(=O)N2CCCC(Cc3cccc4ncccc34)C2)n1` (configuration not stated), the half-inhibitory concentration (IC50) is greater than 50.1 µM.

`O=C1NCCCC12CCN(c1nc3c(c(C(F)(F)F)n1)CCCC3)C2` (configuration not stated) had an IC50 greater than 50.1 µM.

`CC(C)COc1cccc(-c2nc3c([nH]2)CCNC3)c1` showed a pIC50 of 4.688 and an IC50 of 19.2 µM.

As for `FC1(F)CCN(c2ccccc2)CC12CCN(c1ncccn1)C2` (configuration not stated), the IC50 is greater than 50.1 µM.

Regarding `CCOc1ccc(-c2c(-c3ccccc3)ncn2C2CCNC2)cn1` (configuration not stated), the pIC50 is given as 4.374 and the half-maximal inhibitory concentration (IC50) is greater than 50.1 µM.

In the case of `COc1cccc(C(=O)NCc2ccccc2S(=O)(=O)N(C)C)c1`, the concentration for half-maximal inhibition (IC50) was greater than 50.1 µM.

`Cc1nc(C2(O)CCCNCC2)sc1CCOc1ccccc1Cl.Cl` (configuration not stated) gave a pIC50 of 5.014 and a half-inhibitory concentration (IC50) of 12.5 µM.

Take `CCCn1nnc2c(sc3nc(N4CCOCC4)c4c(c32)CCC4)c1=O`: the IC50 is greater than 50.1 µM.

`Cc1ccc(-c2ncc(CNc3cnccc3CO)s2)cc1` showed an IC50 greater than 50.1 µM.

In turn, `Cc1cc(N(C)CC2COc3ccccc3O2)nc(N)n1` (configuration not stated) had an IC50 greater than 50.1 µM.

For `Cn1ncc2c(N3CCCC4(CCNC4)C3)nc(C(C)(C)C)nc21` (configuration not stated), the negative-log IC50 (pIC50) was 4.611 and 4.922.

For the molecule `Cc1sc2nc(C(F)(F)F)nc(N3CCN(C)CC3)c2c1C`, the IC50 is greater than 50.1 µM.

For `FC1(F)CCN(Cc2cccnc2)CC12CCN(c1cnccn1)C2` (configuration not stated), the half-maximal inhibitory concentration (IC50) was greater than 50.1 µM.

Molecule `Cc1nc(NCc2cccnc2)c2c(n1)c(C)nn2C` had an IC50 greater than 50.1 µM.

With `CCn1nccc1CN(C)C(=O)Cn1cc2c(n1)c(C)nn2CC`, the IC50 is greater than 50.1 µM.

On to `CCN(CC)c1ccc2ccc(C(=O)N(CCOC)CCOC)cn12`, for which the IC50 was greater than 50.1 µM.

Molecule `Cc1sc2nc(CCN)nc(N(CCN(C)C)CC3CCCO3)c2c1C` (configuration not stated) showed an IC50 greater than 50.1 µM.

For `O=C(c1ccc2ccc(N3CCN(CC4CC4)CC3)n2c1)N1CCCO1`, the IC50 was greater than 50.1 µM.

The molecule `COCCN(Cc1cnn(C)c1)c1nc(C)nc2sccc12` showed a 50% inhibitory concentration (IC50) greater than 50.1 µM.

Molecule `CN(C)C(=O)N1CCN(c2ccc3ccc(C(=O)NC4CC4)cn23)CC1` showed an IC50 greater than 50.1 µM.

In turn, `FC1(F)CCN(Cc2ccncc2)CC12CCN(c1cccnc1)C2` (configuration not stated) gave a half-maximal inhibitory concentration (IC50) greater than 50.1 µM.

The molecule `O=C(NC1COC2(CCN(Cc3ccccn3)CC2)C1)c1ccccn1` (configuration not stated) gave a concentration for half-maximal inhibition (IC50) greater than 50.1 µM.

In the case of `Cn1nnc2c(sc3nc(N4CCOCC4)c4c(c32)CCC4)c1=O`, the IC50 is greater than 50.1 µM.

Molecule `Cc1sc2nc(CCN)nc(N3CC(N4CCCCC4)C3)c2c1C` gave a half-maximal inhibitory concentration (IC50) of 23.7 µM.

Molecule `Cc1csc(C2(NCC(O)COc3ccc(F)cc3)CCC2)n1` (configuration not stated) had an IC50 greater than 50.1 µM.

For the molecule `Cc1nc(NCc2nncn2C2CC2)c2c(CC(C)C)csc2n1`, the 50% inhibitory concentration (IC50) was greater than 50.1 µM.

The molecule `Cc1cnc(N2CCc3onc(COc4cccnc4)c3C2)nc1` showed an IC50 greater than 50.1 µM.

`CC(C)N1CCN(c2ccc3ccc(C(=O)NC4CCCC4)cn23)CC1` gave a half-inhibitory concentration (IC50) greater than 50.1 µM.

The molecule `CC1CCCN(CC(=O)N2CCC(c3ncc4c(n3)CCNC4)CC2)C1` (configuration not stated) gave an IC50 greater than 50.1 µM.

`Cc1nccn1CCCn1cncc1-c1ccc2c(c1)CCCN2C` had an IC50 greater than 50.1 µM.

In turn, `C=C(C)CN1CCC(C(=O)c2cc(F)ccc2F)CC1` had an IC50 greater than 50.1 µM.

Take `COCCNC(=O)c1ccc2ccc(N3CCN(CC4CC4)CC3)n2c1`: the IC50 was greater than 50.1 µM.

As to `CS(=O)(=O)N1CCN(Cc2csc(-c3ncccn3)n2)CC1`, the IC50 is greater than 50.1 µM.

The molecule `c1cnc(-c2nc(CN3CCCN(Cc4cccs4)CC3)cs2)nc1` gave an IC50 greater than 50.1 µM.

In turn, `COc1ccc(CNc2cnn(C)c(=O)c2Cl)cc1` had a half-maximal inhibitory concentration (IC50) greater than 50.1 µM.

Regarding `FC(F)(F)c1nc(NC2CCCC2)c2ccccc2n1`, the IC50 is greater than 50.1 µM.

Consider `Cc1c(CN2CC[C@@H](N3CCC(O)CC3)[C@H](O)C2)[nH]c2ccc(Cl)cc12`, for which the negative logarithm of the IC50 (pIC50) is 4.995 and half-maximal inhibition (IC50) was put at 10.7 µM.

`CN(Cc1ccncc1)C1COC2(CCN(Cc3ccco3)CC2)C1` (configuration not stated) had an IC50 greater than 50.1 µM.

`Cc1nn(C)cc1-c1cc(C(F)(F)F)nc(NC2CCN(C)CC2)n1` showed an IC50 greater than 50.1 µM.

As to `CCOc1ccc(CNCCCn2ccnc2)cc1Br`, the negative-log IC50 (pIC50) was 4.774 and 14.4 µM corresponded to half-maximal inhibition (IC50).

The molecule `CC(C)Nc1nc2c(c(NC3CC3)n1)CCN(C1CCOCC1)CC2` had a negative logarithm of the IC50 (pIC50) of 4.789 and an IC50 of 13 µM.

As for `CN(C)C(=O)c1ccc2ccc(N3CCN(CC4CC4)CC3)n2c1`, the IC50 is greater than 50.1 µM.

As for `Cc1nc(NCc2noc(C3CCCO3)n2)c2ccsc2n1` (configuration not stated), the concentration for half-maximal inhibition (IC50) was greater than 50.1 µM.

For `CN(c1ncnc2c1CCC2)C1CCCN(c2cccnn2)C1` (configuration not stated), the IC50 was greater than 50.1 µM.

Consider `CCN(CC)c1ccc2ccc(C(=O)NC3CC3)cn12`, for which the IC50 was greater than 50.1 µM.

Consider `CCCc1nc(CN2CCCC2Cn2cncn2)cs1` (configuration not stated), for which the half-inhibitory concentration (IC50) is greater than 50.1 µM.

For the molecule `CN(c1ncnc2sccc12)C1CCCN(c2cccnn2)C1` (configuration not stated), the half-maximal inhibitory concentration (IC50) was greater than 50.1 µM.

Molecule `Cc1cc(C(F)(F)F)nc(CCNc2nc(C)nc3sccc23)n1` gave a half-maximal inhibitory concentration (IC50) greater than 50.1 µM.

`O=C(NCCN1CCOCC1)c1ccc(-n2ccc3ccccc32)s1`: the IC50 was greater than 50.1 µM.

Molecule `CCCC1CCCN(Cc2csc(-c3cnn(C)c3)n2)CC1` (configuration not stated) had an IC50 greater than 50.1 µM.

In turn, `Cc1ccc(N2CCC3(CN(Cc4ccncc4)CCC3(F)F)C2)nn1` (configuration not stated) gave a concentration for half-maximal inhibition (IC50) greater than 50.1 µM.

Turning to `CCOc1c(CNCCCn2ccnc2)cc(Cl)cc1OC`, the 50% inhibitory concentration (IC50) is 27.5 µM.

Consider `CCN(CC)c1ccc2ccc(C(=O)N3CCCCO3)cn12`, for which the IC50 is 24.4 µM.

With `COc1ccccc1CN(C)C(=O)CN1CC(n2nc(C)cc2C)C1`, the pIC50 is 4.762 and the IC50 is 19.1 µM.

The molecule `COc1cccc(Nc2nc(N3CCCC3)nc3c2CNCC3)c1.Cl` showed a pIC50 of 5.277 and an IC50 of 4.47 µM.

In the case of `CN1CCN(C2COC3(CCN(Cc4ccsc4)CC3)C2)CC1` (configuration not stated), the 50% inhibitory concentration (IC50) is greater than 50.1 µM.

In the case of `O=C(O)C1CCCN1c1nc(C2CC2)cc(C(F)(F)F)n1` (configuration not stated), the IC50 is greater than 50.1 µM.
